Assay results from patent publication US20220265629A1, “TREATMENT OF SYSTOLIC DYSFUNCTION AND HEART FAILURE WITH REDUCED EJECTION FRACTION WITH THE COMPOUND (R)-4-(1-((3-(DIFLUOROMETHYL)-1-METHYL-1H-PYRAZOL-4-YL)SULFONYL)-1-FLUOROETHYL)-N-(ISOXAZOL-3-YL)PIPERIDINE-1-CARBOXAMIDE” (MyoKardia, Inc., priority 2019, published 2022).
Values joined by “and” are separate entries in the source; they are usually repeats but may differ in a detail not shown here. Identical values can stand only once.

Assay: HFrEF study Part 2 (MAD Cohorts A-D): plasma pharmacokinetics
Type: in vivo, human
Settings: for AUC_TAU: steady state
Text: This was a randomized, parallel-group, DB, placebo-controlled, adaptive design, sequential ascending (oral) multiple-close study in stable patients with heart failure. Four MAD Cohorts (A, B, C, D) were enrolled (FIG. 5B). An SRC reviewed results from each cohort and determined the close and confirmed initial sample size for the subsequent cohort. Additionally, the first 3 patients in each cohort had LVEF≥25%; the SRC reviewed preliminary safety data from these patients and decided whether to open cohort enrollment to patients with LVEF<25%.
After Screening and qualification, patients were confined to a clinical testing facility from Day 1 (Check-in) to Day 11. Each patient initially received placebo BID for 2 days (Days 1 and 2) in single-blinded manner (“run-in” during acclimatization to confinement in the Clinical Testing Unit) prior to receiving the randomized DB study drug treatment on Day 3. All patients then received either placebo or active Compound I for 7 days (Days 3 through 9), with a follow-up period with patients discharged from the unit on Day 11. A final follow-up clinic visit was conducted on Day 16. More than one patient could be closed in a cohort at the same time or during the same week depending on administrative issues, i.e., capacity and scheduling.
Patients were closed twice daily (every 12 hours). Doses could occur±2 hours from scheduled dosing times as long as closes were separated by at least 10 hours and by no more than 14 hours. The exception to the twice daily dosing was on Day 9 (last dose of randomized DB study drug treatment). On Day 9, a single morning close was administered.
During the study, multiple evaluations were performed that included: serial TTE assessments (11-14 TTEs per patient on Days 1, 2, 3, 4, 7, 9, 10 and 11); PK sampling (PK sample collected concomitantly with every post-randomization echocardiogram); ECGs (on Days 2, 3, 4, 7, 9, 10, 11 and 16); troponin (collected concomitantly with every post-randomization ECG); and safety laboratory assessments. Confined patients underwent continuous telemetry. Holter monitoring was performed in all patients at baseline (Days 1-2) and at the end of double-blind treatment (Days 7-9). Vital signs were collected daily.
Study medication consisted of Compound I 5 mg tablets, 25 mg tablets, 100 mg tablets, or matching placebo tablets. In Part 1 (SAD), Compound I or placebo was administered after an overnight fast (at least 6 hours), while in Part 2 (MAD), Compound I was administered after a 2 hour fast (Cohort A) or with food (Cohorts B, C, and D). The close was ingested with a minimum of 240 mL of water, but more water was ingested as needed. The entire close was administered over a period of up to 15 minutes. The time of close used to determine future assessments was the time the last tablet was taken. In the cohorts for Part 2 (MAD), a BID regimen was used.
In Part 2 (MAD), Cohort A patients fasted for 2 hours before and 2 hours after dosing. For example, if morning dosing occurred at 8 AM, patients could have a snack at 6 AM and a full breakfast at 10 AM. If afternoon dosing occurred at 8 PM, patients could have dinner at 6 PM and a snack at 10 PM. […] Cohort B, C, and D patients ingested food with each close.

[1] = Cohort A + C (n = 14), 75 mg BID
[2] = MAD Cohort A, 75 mg BID (4 h fasting), Mean
[3] = MAD Cohort A, 75 mg BID (4 h fasting), individual subjects
[4] = MAD Cohort B, 50 mg BID (with food), Mean
[5] = MAD Cohort B, 50 mg BID (with food), individual subjects
[6] = MAD Cohort C, 75 mg BID (with food), Mean
[7] = MAD Cohort C, 75 mg BID (with food), individual subjects

Cn1cc(S(=O)(=O)[C@@](C)(F)C2CCN(C(=O)Nc3ccon3)CC2)c(C(F)F)n1 [Compound I, (R)-4-(1-((3-(difluoromethyl)-1-methyl-1H-pyrazol-4-yl)sulfonyl)-1-fluoroethyl)-N-(isoxazol-3-yl)piperidine-1-carboxamide]
Post-dose maximum concentration, steady-state (Day 9) plasma [1]: 3862 (27.7%) ng/mL
Pre-dose concentration, steady-state (Day 9) plasma [1]: 2930 (36.8%) ng/mL
time to steady-state plasma concentrations (Cohort A, 75 mg twice daily, fasted): approximately 3 days
Post-dose maximum concentration, steady-state (Day 9) plasma (Cohort B (n = 8), 50 mg BID): 2735 (17.5%) ng/mL
Pre-dose concentration, steady-state (Day 9) plasma (Cohort B (n = 8), 50 mg BID): 2096 (20.0%) ng/mL
time to steady-state plasma concentrations (Cohort B, 50 mg twice daily with food): approximately 4 days
Post-dose maximum concentration, steady-state (Day 9) plasma (Cohort D (n = 6), 100 mg BID): 5560 (22.8%) ng/mL
Pre-dose concentration, steady-state (Day 9) plasma (Cohort D (n = 6), 100 mg BID): 4694 (25.5%) ng/mL
Accumulation Ratio AUC tau [2]: 3.74
Accumulation Ratio Cmax [2]: 3.53
Accumulation_Index [2]: 3.11
Cavg, ss [2]: 3420 ng/mL
Cmin, SS [2]: 2758 ng/mL
AUCtau, Day 1 [3]: 12360 ng·h/mL and 8025 ng·h/mL and 9501 ng·h/mL and 11570 ng·h/mL
Accumulation Ratio AUC tau [3]: 4.37 and 3.96 and 3.15* and 2.80 and 4.27 and 3.31
Accumulation Ratio Cmax [3]: 4.32 and 3.46 and 2.51* and 2.80 and 4.06 and 2.99
Accumulation_Index [3]: 3.82 and 3.89 and 2.79* and 2.21 and 3.00 and 2.61
Cavg, ss [3]: 3846 ng/mL and 4079 ng/mL and 2108* ng/mL and 2215 ng/mL and 3774 ng/mL and 3188 ng/mL
Cmax, Day 1 [3]: 1360 ng/mL and 958 ng/mL and 981 ng/mL and 1100 ng/mL and 1250 ng/mL
Cmax, SS [3]: 4710 ng/mL and 2400* ng/mL and 2750 ng/mL and 4470 ng/mL and 3740 ng/mL
Cmin, SS [3]: 3050 ng/mL and 3510 ng/mL and 1450* ng/mL and 1740 ng/mL and 2880 ng/mL and 2610 ng/mL
t1/2, λz [3]: 27.41 hr and 28.02 hr and 18.78* hr and 13.84 hr and 20.55 hr and 17.21 hr
AUC_TAU [3]: 48950 hr*ng/mL and 25290* hr*ng/mL and 26580 hr*ng/mL and 45290 hr*ng/mL and 38250 hr*ng/mL
Accumulation Ratio AUC tau [4]: 4.09
Accumulation Ratio Cmax [4]: 3.57
Accumulation_Index [4]: 3.55
Cavg, ss [4]: 2336 ng/mL
Cmin, SS [4]: 1989 ng/mL
AUCtau, Day 1 [5]: 5050 ng·h/mL and 6754 ng·h/mL and 8138 ng·h/mL and 8855 ng·h/mL and 7249 ng·h/mL and 6347 ng·h/mL and 8620 ng·h/mL
Accumulation Ratio AUC tau [5]: 4.00 and 6.37 and 5.22 and 3.26 and 4.07 and 3.30 and 3.63 and 2.88
Accumulation Ratio Cmax [5]: 3.16 and 5.33 and 4.78 and 3.08 and 4.02 and 2.64 and 3.05 and 2.51
Accumulation_Index [5]: 3.63 and 5.03 and 4.46 and 2.93 and 3.51 and 2.42 and 3.20 (2×) and 4.23*
Cavg, ss [5]: 2478 ng/mL and 2681 ng/mL and 2940 ng/mL and 2213 ng/mL and 3002 ng/mL and 1991 ng/mL and 1919 ng/mL and 2070 ng/mL and 1725* ng/mL
Cmax, Day 1 [5]: 548 ng/mL and 674 ng/mL and 830 ng/mL and 891 ng/mL and 901 ng/mL and 696 ng/mL and 974 ng/mL
Cmax, SS [5]: 2920 ng/mL and 3220 ng/mL and 2560 ng/mL and 3580 ng/mL and 2380 ng/mL and 2120 ng/mL and 2440 ng/mL and 2060* ng/mL
Cmin, SS [5]: 1900 ng/mL and 2380 ng/mL and 2640 ng/mL and 1810 ng/mL and 2370 ng/mL and 1440 ng/mL and 1720 ng/mL and 1650 ng/mL and 1320* ng/mL
t1/2, λz [5]: 25.81 hr and 37.48 hr and 32.77 hr and 19.93 hr and 24.77 hr and 15.57 hr and 22.23 hr and 22.21 hr and 30.87* hr
AUC_TAU [5]: 32170 hr*ng/mL and 35280 hr*ng/mL and 26560 hr*ng/mL and 36030 hr*ng/mL and 23890 hr*ng/mL and 23030 hr*ng/mL and 24840 hr*ng/mL and 20700* hr*ng/mL
Accumulation Ratio AUC tau [6]: 3.99
Accumulation Ratio Cmax [6]: 3.28
Accumulation_Index [6]: 3.18
Cavg, ss [6]: 3357 ng/mL
Cmin, SS [6]: 2812 ng/mL
AUCtau, Day 1 [7]: 13270 ng·h/mL and 8280 ng·h/mL and 10790 ng·h/mL and 9731 ng·h/mL and 6976 ng·h/mL and 9166 ng·h/mL and 14840 ng·h/mL and 11840 ng·h/mL
Accumulation Ratio AUC tau [7]: 2.44 and 1.90 and 3.48 and 4.61 and 7.62 and 3.88 and 2.59 and 4.85 and 4.53
Accumulation Ratio Cmax [7]: 2.17 and 1.80 and 3.20 and 4.06 and 4.80 and 2.80 and 2.38 and 4.63 and 3.68
Accumulation_Index [7]: 2.18 and 2.39 and 2.99 and 3.31 and 5.51 and 2.43 and 2.20 and 4.17 and 3.42
Cavg, ss [7]: 2695 ng/mL and 1308 ng/mL and 3126 ng/mL and 3738 ng/mL and 4432 ng/mL and 2963 ng/mL and 3206 ng/mL and 4267 ng/mL and 4474 ng/mL
